We go through nine compounds from patent publication US4521428A, “Anorexigenic trifluoromethylphenyltetrahydropyridines and pharmaceutical compositions containing them” (Sanofi, priority 1982, dated 1985).

Read-outs that look alike come from different tables or passages of the source. A value given as a limit tells only on which side of the number the result lay.

Series [1] is described as follows: acute toxicity in the rat (LD50) by the oral or intraperitoneal route. To be noted: in vivo; for selectivity ratio: read-out: A/B (LD50/ID50, therapeutic index). An excerpt:
the acute toxicity, expressed as LD50 in the rat by the oral or intraperitoneal route (A);
the ratio between the acute toxicity and the anorectic activity which expresses the therapeutic index related to the acute toxicity (A/B).

Series [2] relates to cerebral serotonin. Briefly: cerebral rates of serotonin compared to controls, according to Curzon and Green. Format: in vivo. To be noted: for cerebral rates of serotonin, % compared to controls: two hours after administration. An excerpt:
Table II hereinbelow summarizes the percent cerebral rates of serotonin, compared to the controls, after intraperitoneal or oral administration of four representative compounds of the present invention. The determination of the cerebral rates, according to Curzon and Green (Br. J. Pharmacol. 1970, 39, 653) was made two hours after the administration. Fenfluramine was used as reference compound.

Series [3] has as its system food intake (female rats). The series is described as follows: anorectic activity by the food intake method in the rat. As to conditions: food taken in first hour, read-out: ID50 (dose inhibiting by 50% the food intake). Format: in vivo. On the procedure:
The anorectic activity was assessed by the food intake method in the rat. Female rats weighing 200 g are used, which were trained for 10 days to eat during a period of 4 hours and selected on the eighth day. At the end of the tenth day, the randomised animals were divided into a "control group" treated with the vehicle alone, and into several "treated groups". The treatment was effected by intraperitoneal or by oral route 30 minutes or 1 hour, respectively, before the presentation of the food and the amount of food taken in the course of the first hour was then measured.
the anorectic activity, expressed as oral or intraperitoneal dose inhibiting by 50% the food intake (ID50, B);

In another series the test system is central nervous system. As to conditions: in vivo; cited from earlier work.
The subject of the next series is serotonin release. To be noted: central neurons; cited from earlier work.
The subject of series [4] is cerebral serotonin. As to conditions: doses very close to the anorectic dose; Arch. Intern. Pharmacodyn. Ther. 1967; cited from earlier work.
A further series has as its system cerebral noradrenaline. As to conditions: cited from earlier work.
[5] abbreviates: ip, 1 h, i.p., 30 minutes before food.

The term LD50 denotes the dose at which mortality reaches 50%. Higher therefore signals lower toxicity. On to `Cl.FC(F)(F)c1cccc(C2=CCN(CCc3ccccn3)CC2)c1` [Example 1, 1-[2-(2-pyridyl)ethyl]-4-(3-trifluoromethylphenyl)-1,2,3,6-tetrahydropyridine hydrochloride], for which the 50% lethal dose (LD50) in series [1] (ip) stood at 108 mg/kg; in series [1] (po, os), 195 mg/kg. For the same compound, the selectivity ratio in series [1] (ip) worked out at 54.2; in series [1] (os), 56. Besides, the “cerebral rates of serotonin, % compared to controls” value (“cerebral rates of serotonin, %” below) is listed as 93 ± 7% in the series on cerebral serotonin [2] (i.p., 1.625 mg/kg); 85 ± 1% in the series with cerebral serotonin [2] (i.p., 3.25 mg/kg); 98 ± 10% with cerebral serotonin [2] (i.p., 7.5 mg/kg, °° P < 0.01). For the same compound, the ED50 in series [3] (setting [5]) was 1.99 mg/kg; in series [3] (po, os, 1 hour before food), 3.49 mg/kg.
With `Cl.FC(F)(F)c1cccc(C2=CCN(CCc3cccnc3)CC2)c1` [Example 2, 1-[2-(3-pyridyl)ethyl]-4-(3-trifluoromethylphenyl)-1,2,3,6-tetrahydropyridine hydrochloride], the selectivity ratio in series [1] (os) amounted to 128. In series [1] (po, os), this compound displayed an LD50 of 227 mg/kg. The “cerebral rates of serotonin, %” value in the series on cerebral serotonin [2] (os, 2.0 mg/kg) is 113 ± 5%. In series [3] (po, os, 1 hour before food), the ED50 was found to be 1.77 mg/kg.
As for `Cl.FC(F)(F)c1cccc(C2=CCN(CCc3ccncc3)CC2)c1` [Example 3, 1-[2-(4-pyridyl)ethyl]-4-(3-trifluoromethylphenyl)-1,2,3,6-tetrahydropyridine hydrochloride], the selectivity ratio in series [1] (os) worked out at 49.6. The compound also yielded an LD50 in series [1] (po, os) of 289 mg/kg. For the same compound, in series [3] (po, os, 1 hour before food), the ED50 is 5.82 mg/kg.
For `Cc1cccc(CCN2CC=C(c3cccc(C(F)(F)F)c3)CC2)n1.Cl` [Example 4, 1-[2-(6-methyl-2-pyridyl)ethyl]-4-(3-trifluoromethylphenyl)-1,2,3,6-tetrahydropyridine hydrochloride], the selectivity ratio in series [1] (os) was 35.6. Also, the LD50 in series [1] (po, os) was 202 mg/kg. The “cerebral rates of serotonin, %” value with cerebral serotonin [2] (os, 5.69 mg/kg) is on record as 119 ± 6%. For the same compound, in series [3] (po, os, 1 hour before food), the ED50 came out at 5.69 mg/kg.
As to `Cl.[O-][n+]1ccc(CCN2CC=C(c3cccc(C(F)(F)F)c3)CC2)cc1` [Example 5, 4-[2-[4-(3-trifluoromethylphenyl)-1,2,3,6-tetrahydropyrid-1-yl]ethyl]pyridine 1-oxide hydrochloride], in series [1] (os), the selectivity ratio was approximately 176. Moreover, the LD50 in series [1] (po, os) is approximately 300 mg/kg. Besides, the ED50 in series [3] (po, os, 1 hour before food) amounted to 1.71 mg/kg.
The like results for `Cl.FC(F)(F)c1cccc(C2=CCN(CCc3cccc4ccccc34)CC2)c1` [Example 6, 1-[2-(1-naphthyl)ethyl]-4-(3-trifluoromethylphenyl)-1,2,3,6-tetrahydropyridine hydrochloride] were, in that order, more than 126, more than 600 mg/kg and 4.75 mg/kg.
As to `Cl.FC(F)(F)c1cccc(C2=CCN(CCc3ccc4ccccc4c3)CC2)c1` [Example 7, 1-[2-(2-naphthyl)ethyl]-4-(3-trifluoromethylphenyl)-1,2,3,6-tetrahydropyridine hydrochloride], the selectivity ratio in series [1] (os) was more than 76.6. The 50% lethal dose (LD50) in series [1] (po, os) is more than 800 mg/kg. Besides, the ED50 in series [3] (po, os, 1 hour before food) amounted to 10.4 mg/kg.
For `CCNC(C)Cc1cccc(C(F)(F)F)c1` (stereo not drawn) [Fenfluramine, reference compound], the “anorectic activity (background)” value in the series with central nervous system is given as “excellent anorectic activity”. The “sedative/stimulant action (background)” value in the series with central nervous system is “some sedative action”. In addition, the “serotonin release (background)” value in the series with serotonin release is given as “release of the endogenous serotonin of the central neurons”. Also, the LD50 worked out at 102 mg/kg in series [1] (ip) and 231 mg/kg in series [1] (po, os). Moreover, the “cerebral rates of serotonin (background)” value with cerebral serotonin [4] is recorded as “significant reduction in the cerebral rates of serotonin”. Moreover, the “cerebral serotonin depletion/reduction” value with cerebral serotonin [2] (in vivo) is “significant reduction of the cerebral serotonin”. Moreover, the ED50 was 1.58 mg/kg in series [3] (setting [5]) and 2.51 mg/kg in series [3] (po, os, 1 hour before food).
As to `CC(N)Cc1ccccc1` (stereo not drawn) [amphetamine], in the series with cerebral noradrenaline, the “noradrenaline release mediating anorexia (background)” value is listed as “seems to be mediated by the release of cerebral noradrenaline”.
